Earlier results on 1 compound are cited in patent publication US9682081B2, “Pharmaceutical gastro-retentive solid oral dosage form of nilotinib” (SUN PHARMACEUTICAL INDUSTRIES LIMITED, priority 2013, dated 2017).

The conditions of data set [1]: Class IV means low/moderate aqueous solubility and low permeability.
For data set [2] the following is noted: 25° C., pH 4.5 and higher.

Turning to `Cc1cn(-c2cc(NC(=O)c3ccc(C)c(Nc4nccc(-c5cccnc5)n4)c3)cc(C(F)(F)F)c2)cn1` [Nilotinib, 4-methyl-N-[3-(4-methyl-1H-imidazol-1-yl)-5-(trifluoromethyl)phenyl]-3-[[4-(3-pyridinyl)-2-pyrimidinyl]amino]-benzamide], in data set [1], the “Biopharmaceutical Classification System (BCS) class” value is reported as “Class IV”. The “solubility in aqueous solutions” value in data set [2] is listed as “practically insoluble”.
